Laboratory results from patent publication US5324725A, “7-fused 2-(piperazinoalkyl) indole derivatives, intermediates and compositions thereof” (Kali-Chemie Pharma GmbH, priority 1991, dated 1994).
Where two headings read alike, the source gives them in different places.

How the values were obtained:
[1] = target: T1, histamine (H1) receptor (Cavia porcellus, UniProt P31389); assay: Antihistamine (H1) effect: inhibition of histamine-induced contractions of isolated guinea-pig ileum in vitro; type: cell-based, guinea-pig (Dunkin Hartley); details: histamine 5 × 10^-6 mol/l, test substance 10^-6 mol/l
T1 construct: isolated smooth muscle of the guinea-pig ileum; from tissue; host or cells: isolated ileum segments of Dunkin Hartley guinea-pigs
Description: 3. Investigation of the antihistamine (H1) effect based on histamine (H1) receptor antagonism in vitro.
To investigate the histamine (H1) receptor antagonism of the substances, the inhibitory effect thereof on histamine-induced contractions of the smooth musculature of isolated organ was determined in vitro. Isolated strips of organ from the ileum were used. In an organ bath of physiological saline solution, they react to addition of histamine by contracting. Addition of the compounds of the invention decreases this histamine-induced contraction of the smooth musculature of the ileum strips. The extent of decrease of the contraction is an indication of the antihistamine (H1) activity of the compounds. The investigation is carried out analogously to the method originally described by Magnus (Pflugers Arch. 102, 123 (1904)).
Experimental description of the determination of the inhibitory effect on the contraction induced by a 5×10^-6 molar histamine concentration on isolated smooth muscle of the guinea-pig ileum.
For the test, 1.5 cm long segments of the ileum from Dunkin Hartley guinea-pigs having a body weight of 300-500 g were employed. Each strip was placed in an organ bath of 10 ml of Krebs-Henseleit physiological saline solution and attached to a customary apparatus for isotonically measuring changes in length of the ileum strip (automated Celaster measuring apparatus) so that the tissue is under a tension of 1 g. The bath was kept at a pH of 7.4 and aerated with a mixture of 5% CO2 and 95% O2. After an equilibration phase, an isotonic contraction of the tissue was produced by adding histamine in a final concentration of 5×10^-6 mol/l and was washed out again after a contact time of 30 seconds. Only those tissues in which three reproducible contractions were obtained at 10 minute intervals were used in the subsequent test. The test substances were then added in a final concentration of 10^-6 mol/l, and after a contact time of 30 seconds histamine was again added up to a concentration of 5×10^-6 mol/l. The contractions which occurred were measured over the course of 30 seconds. The tissue was then washed several times over a period of 10 minutes. A contraction challenge was then induced again by addition of histamine. The contractions which occurred were again measured over 30 seconds. The difference between the amplitude of the contraction obtained by histamine addition alone and the amplitude of the contraction obtained in the presence of the test substance was determined and calculated as % inhibition.
The inhibitory effects on the contractions induced by histamine 30 seconds after administration of the test substance and on the contractions induced by addition of histamine 10 minutes afterward are given in the table.

[2] = target: T2, cyclooxygenase (Mus musculus, UniProt P22437); assay: Cyclooxygenase inhibition: release of 6-keto-PGF1 α from zymosan-stimulated mouse peritoneal macrophage cells; type: cell-based; details: 10^-5 mol/l, read-out: In vitro % inhibition effect on the release of 6-keto-PGF1 α
T2 construct: A cell suspension containing peritoneal cells of male mice 8-10 weeks old was obtained; endogenous in cells; host or cells: mouse peritoneal macrophages (male mice 8-10 weeks old), zymosan-stimulated
T2 sequence (P22437 27-602): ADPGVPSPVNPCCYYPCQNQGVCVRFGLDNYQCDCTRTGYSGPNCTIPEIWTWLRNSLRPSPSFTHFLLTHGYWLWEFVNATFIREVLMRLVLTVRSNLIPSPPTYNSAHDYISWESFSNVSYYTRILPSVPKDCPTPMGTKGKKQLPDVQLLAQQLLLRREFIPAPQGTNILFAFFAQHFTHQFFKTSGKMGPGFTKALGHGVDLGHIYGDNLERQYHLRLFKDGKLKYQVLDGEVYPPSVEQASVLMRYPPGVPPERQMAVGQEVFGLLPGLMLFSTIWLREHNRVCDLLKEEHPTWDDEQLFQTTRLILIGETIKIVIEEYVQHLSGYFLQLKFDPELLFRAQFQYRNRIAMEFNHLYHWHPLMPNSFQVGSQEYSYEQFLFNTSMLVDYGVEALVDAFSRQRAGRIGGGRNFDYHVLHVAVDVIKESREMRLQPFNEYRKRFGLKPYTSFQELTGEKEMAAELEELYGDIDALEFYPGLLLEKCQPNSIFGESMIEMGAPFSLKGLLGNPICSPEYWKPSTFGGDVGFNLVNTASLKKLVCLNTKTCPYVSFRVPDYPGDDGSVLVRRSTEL
From the text: 5. In vitro determination of cyclooxygenase inhibition and 5-lipoxygenase inhibition.
After activation of the cell, arachidonic acid contained in cell membranes is metabolized in two ways. Leukotrienes, inter alia leukotriene C4, are formed under the action of the enzyme 5-lipoxygenase (5-LO), and prostanoids are formed under the action of the enzyme cyclooxygenase (CO). In in vitro systems, the metabolites are secreted from the cell.
To investigate the cyclooxygenase-inhibiting and the 5-lipoxygenase-inhibiting properties, the inhibitory effect of the test substances on the biosynthesis of the arachidonic acid derivatives leukotriene C4 (LTC4) and 6-ketoprostaglandin F1 α (6-keto-PGF1 α) is determined in vitro on mouse peritoneal macrophage cells. This was accomplished by determining the LTC4 and 6-keto-PGF1 α contents in a culture medium of mouse peritoneal macrophage cells by zymosan stimulation as described by Scott et al. (J. Exp. Med. 152 (1980), 324-335) and by Fradin et al. (Prostaglandins, 33 (1987), 579-589).
A cell suspension containing peritoneal cells of male mice 8-10 weeks old was obtained in a known manner. A commercially available cell culture solution (RPMI 1640 from Messrs. Gibco) was used to which heparin (I0 international units/ml) and antibiotics were added according to the recipe of Bonney et al. (Biochem. J. 176 (1978) 422-433). The cell suspension was adjusted to a cell concentration of 10^6 cells per ml and distributed uniformly on titer plates containing […] (wells). These were kept for two hours in a humidified incubator filled with air enriched with 7% CO2. Cells not adhering to the titer cell walls were then removed by washing. The remaining macrophage cells adhering to the walls were incubated for about 12 hours in a suspension medium to which 0.1% bovine serum albumin (BSA) were added. The suspension medium was then replaced by a Hanks balanced salt solution (HBSS) containing 10 mM Hepes (hydroxyethyl-piperazinoethanesulfonic acid), to which a 0.1% strength solution of the test substances in aqueous, 1% strength dimethylformamide or only the solvent had been added. After 15 minutes the arachidonic acid metabolism was stimulated by adding 10 particles of zymosan (=glycoproteinmixture, isolated from cell walls of beer yeast, Saccharomyces cerevisiae, manufactured by Sigma Chemical Co., Munich) per titer cell. After 2 hours, samples of each of the supernatant liquids were investigated for their 6-keto-PGF1 α and LTC4 contents by means of an enzyme immunoassay (EIA) carried out by the method of Pradelles et al. (Analytical Chem. 57 (1985), 1170-1173). The determination of LTC4 and the determination of 6-keto-PGF1 α were each carried out in comparison with a comparative scale on suitable dilutions of the samples (1:50 to 1:250 for the LTC4 determination and 1:250 to 1:1250 for the 6-keto-PGF1 α determination). To determine the inhibitory effect of a 10^-5 molar concentration of the compounds, the amount of reference eicosanoids was determined and the inhibitory effect was calculated from this in % inhibition compared to the measurements of the zymosan controls.

[3] = after 30 sec., read-out: in vitro (H1) receptor antagonism % inhibitory effect on histamine-induced contractions of the Ileum, after 30 sec.
[4] = after 10 min. (after washing), read-out: in vitro (H1) receptor antagonism % inhibitory effect on histamine-induced contractions of the Ileum, after 10 min.

T1 sequence (P31389 whole entry): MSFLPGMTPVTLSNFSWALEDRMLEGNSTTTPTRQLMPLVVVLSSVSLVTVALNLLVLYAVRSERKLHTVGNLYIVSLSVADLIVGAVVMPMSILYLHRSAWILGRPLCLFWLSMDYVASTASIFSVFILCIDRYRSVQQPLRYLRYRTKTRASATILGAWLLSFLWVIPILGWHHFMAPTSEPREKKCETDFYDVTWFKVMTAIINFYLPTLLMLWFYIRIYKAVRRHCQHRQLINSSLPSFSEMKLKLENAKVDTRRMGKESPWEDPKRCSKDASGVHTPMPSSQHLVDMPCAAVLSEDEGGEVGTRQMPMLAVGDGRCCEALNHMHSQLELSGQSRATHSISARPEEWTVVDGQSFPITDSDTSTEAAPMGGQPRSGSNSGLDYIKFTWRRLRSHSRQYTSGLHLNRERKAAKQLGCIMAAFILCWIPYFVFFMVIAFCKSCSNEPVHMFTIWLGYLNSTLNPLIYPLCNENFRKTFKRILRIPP

Row | SMILES | inhibition at 1 µM [1, 3] [%] | inhibition at 1 µM [1, 4] [%] | inhibition at 10 µM [2] [%]
1 | Cc1ccnc(N2CCN(CCc3cn4c5c(cccc35)CCC4)CC2)c1 [Example 13, 5,6-Dihydro-1-{2-[4-(4-methylpyridin-2-yl)piperazin-1-yl]ethyl}-4H-pyrrolo[3,2,1-ij]quinoline] | 33 | 63 | –
2 | Cc1ccnc(N2CCN(CCc3c(C)n4c5c(cc(Cc6ccccc6)cc35)CCC4)CC2)c1 [Example 77] | – | – | 42
3 | Cc1ccnc(N2CCN(CCc3c(C)n4c5c(cccc35)CCC4c3ccc(O)cc3)CC2)c1 (centres unmarked) [Example 61] | – | – | 65
4 | Cc1ccnc(N2CCN(CCc3c(C)n4c5c(cccc35)SCC4)CC2)c1 [Example 11, 5-Methyl-6-{2-[4-(4-methylpyridin-2-yl)piperazin-1-yl]ethyl}-2,3-dihydro-pyrrolo[1,2,3-de]-1,4-benzo-thiazine] | 21 | 84 | –
5 | Cc1ccnc(N2CCN(CCc3c(C)n4c5c(c(Cl)cc(Cl)c35)OCC4)CC2)c1 [Example 79] | – | – | 52
6 | CCCCCCCC1CCc2cccc3c(CCN4CCN(c5cc(C)ccn5)CC4)c(C)n1c23 (centres unmarked) [Example 4, 4-n-heptyl-5,6-dihydro-2-methyl-1-{2-[4-(4-methylpyridin-2-yl)piperazin-1-yl]ethyl}-4H-pyrrolo[3,2,1-ij]-quinoline] | – | – | 20
7 | Cc1ccnc(N2CCN(CCc3c(-c4ccc(OCCCCO)cc4)n4c5c(cccc35)CCC4)CC2)c1 [Example 12, 2-[4-(4-Hydroxybutyloxy)-phenyl]-1-{2-[4-(4-methylpyridin-2-yl)piperazin-1-yl]ethyl}-5,6-dihydro-4H-pyrrolo[3,2,1-ij]quinoline] | – | – | 53
8 | Cc1ccnc(N2CCN(CCc3c(C)n4c5c(cc(NC(=O)C(C)C)cc35)CCC4)CC2)c1 [Example 60] | 9 | 37 | –
9 | Cc1ccnc(N2CCN(CCc3c(-c4ccc(O)cc4)n4c5c(cccc35)CCC4)CC2)c1 [Example 8, 2-(4-hydroxyphenyl)-1-{2-[4-(4-methylpyridin-2-yl)piperazin-1-yl]ethyl}-5,6-dihydro-4H-pyrrolo[3,2,1-ij]quinoline] | – | – | 74
10 | CCCCC1CCc2cccc3c(CCN4CCN(c5cc(C)ccn5)CC4)c(C)n1c23 (centres unmarked) [Example 73, 4-n-butyl-5,6-dihydro-2-methyl-1-{2-[4-(4-methylpyridin-2-yl)piperazin-1-yl]ethyl}-4H-pyrrolo[3,2,1-ij]quinoline] | – | – | 29
11 | CC(=O)Oc1cc2c3c(c1)c(CCN1CCN(c4cc(C)ccn4)CC1)c(C)n3CCC2 [Example 24, 8-Acetoxy-5,6-dihydro-2-methyl-1-{2-[4-(4-methyl-pyridin-2-yl)piperazin-1-yl]ethyl}-4H-pyrrolo[3,2,1-ij]quinoline] | 81 | 94 | –
12 | Cc1ccnc(N2CCN(CCc3c(-c4ccc(F)cc4)n4c5c(cccc35)CCC4)CC2)c1 [Example 47] | – | – | 69
13 | CCc1c(CCN2CCN(c3cc(C)ccn3)CC2)c2cccc3c2n1CCC3 [Example 15, 2-Ethyl-5,6-dihydro-1-{2-[4-(4-methylpyridin-2-yl)piperazin-1-yl]ethyl}-4H-pyrrolo[3,2,1-ij]quinoline] | 29 | 78 | –
14 | COc1ccc(C2CCc3cccc4c(CCN5CCN(c6cc(C)ccn6)CC5)c(C)n2c34)cc1 (centres unmarked) [Example 59] | – | – | 43
15 | Cc1ccnc(N2CCN(CCc3c(C)n4c5c(cccc35)C(C)CC4)CC2)c1 (centres unmarked) [Example 57] | 20 | 80 | –
16 | Cc1ccnc(N2CCN(CCc3c(C)n4c5c(cc(C)cc35)CCC4)CC2)c1 [Example 54] | 8 | 94 | –
17 | Cc1ccnc(N2CCN(CCc3c(C)n4c5c(cc(N(C)C)cc35)CCC4)CC2)c1 [Example 81] | – | – | 16
18 | Cc1cc2c3c(c1)c(CCN1CCC(C(=O)c4ccc(F)cc4)CC1)c(C)n3CCC2 [Example 55] | – | – | 41
19 | COc1ccc(-c2c(CCN3CCN(c4cc(C)ccn4)CC3)c3cccc4c3n2CCC4)cc1 [Example 7, 2-(4-methoxy-phenyl)-1-{2-[4-(4-methylpyridin-2-yl)piperazin-1-yl]ethyl}-5,6-dihydro-4H-pyrrolo[3,2,1-ij]quinoline] | – | – | 49
20 | Cc1ccnc(N2CCN(CCc3c(C)n4c5c(cccc35)CCC4C3CCCCC3)CC2)c1 (centres unmarked) [Example 87] | – | – | 20
21 | Cc1ccnc(N2CCN(CC(O)c3c(C4CCCCC4)n4c5c(cccc35)CCC4)CC2)c1 (centres unmarked) [Example 85] | – | – | 52
22 | CCc1c(C(O)CN2CCN(c3cc(C)ccn3)CC2)c2cccc3c2n1CCC3 (centres unmarked) [Example 14, 2-Ethyl-5,6-dihydro-1-{2-[4-(4-methylpyridin-2-yl)piperazin-1-yl]-1-hydroxyethyl}-4H-pyrrolo[3,2,1-ij]quinoline] | – | – | 25
23 | Cc1ccnc(N2CCN(CCc3c(C)n4c5c(c(C(O)C(C)C)ccc35)SCC4)CC2)c1 (centres unmarked) [Example 89] | – | – | 32
24 | Cc1ccnc(N2CCN(CCc3c(C)n4c5c(cc([N+](=O)[O-])cc35)CCC4)CC2)c1 [Example 10, 2-Methyl-8-nitro-1-{2-[4-(4-methylpyridin-2-yl)-piperazin-1-yl]ethyl}-5,6-dihydro-4H-pyrrolo[3,2,1-ij]quinoline] | 47 | 92 | –
